Assay results from BindingDB's records for doi:10.1021/jm031106i (Linkoping University, 2004).

Columns and labels:
Test in all cases: Enzyme Inhibition Measurements
Plasmepsin I = Plasmepsin I (Plasmodium falciparum, UniProt P39898)
Method: (§1) Enzyme activities were assayed by monitoring the hydrolysis of substrate in the presence or absence of inhibitor compounds. The hydrolysis was recorded as the increase in fluorescence intensity over a 10 min time period. IC50 values were obtained by assuming competitive inhibition and fitting the dose response data to the equation (Vi/V0) =1/ (1 + [I]/IC50)). The Ki was calculated by using Ki = IC50/ (1 + [S]/Km), and a Km value determined according to Michaelis-Menten.

Plasmepsin II = Plasmepsin II (Plasmodium falciparum (isolate HB3), UniProt P46925); details: pH 4.5; 22 °C
Plasmepsin II, sequence (P46925 whole entry): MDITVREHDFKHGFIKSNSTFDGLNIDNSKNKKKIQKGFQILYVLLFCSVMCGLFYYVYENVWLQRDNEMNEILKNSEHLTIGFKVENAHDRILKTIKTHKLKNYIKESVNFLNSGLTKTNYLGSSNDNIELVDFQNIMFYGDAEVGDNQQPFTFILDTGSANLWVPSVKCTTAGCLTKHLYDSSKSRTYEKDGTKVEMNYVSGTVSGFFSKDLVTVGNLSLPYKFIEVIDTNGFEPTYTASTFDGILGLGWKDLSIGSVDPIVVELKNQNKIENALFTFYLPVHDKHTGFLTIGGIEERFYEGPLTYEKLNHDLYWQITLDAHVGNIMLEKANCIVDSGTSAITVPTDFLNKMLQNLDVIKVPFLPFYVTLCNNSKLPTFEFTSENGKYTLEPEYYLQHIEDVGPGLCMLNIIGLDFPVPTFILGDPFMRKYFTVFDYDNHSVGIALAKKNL
Method: as §1

Cathepsin D = Cathepsin D (Homo sapiens, UniProt P07339)
Cathepsin D, sequence (P07339 65-162 limits assumed): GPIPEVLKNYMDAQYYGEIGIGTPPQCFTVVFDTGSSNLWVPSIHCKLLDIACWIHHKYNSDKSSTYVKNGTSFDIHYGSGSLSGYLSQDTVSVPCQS
Cathepsin D, sequence (P07339 169-412 limits assumed): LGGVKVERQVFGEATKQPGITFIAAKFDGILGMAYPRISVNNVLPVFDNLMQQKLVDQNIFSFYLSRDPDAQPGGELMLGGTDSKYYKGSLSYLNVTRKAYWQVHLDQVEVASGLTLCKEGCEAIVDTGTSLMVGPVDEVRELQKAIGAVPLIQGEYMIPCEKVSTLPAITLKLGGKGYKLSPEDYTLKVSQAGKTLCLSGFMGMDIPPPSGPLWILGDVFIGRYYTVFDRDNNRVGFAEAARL
Method: as §1

Plasmepsin I, sequence (P39898 whole entry): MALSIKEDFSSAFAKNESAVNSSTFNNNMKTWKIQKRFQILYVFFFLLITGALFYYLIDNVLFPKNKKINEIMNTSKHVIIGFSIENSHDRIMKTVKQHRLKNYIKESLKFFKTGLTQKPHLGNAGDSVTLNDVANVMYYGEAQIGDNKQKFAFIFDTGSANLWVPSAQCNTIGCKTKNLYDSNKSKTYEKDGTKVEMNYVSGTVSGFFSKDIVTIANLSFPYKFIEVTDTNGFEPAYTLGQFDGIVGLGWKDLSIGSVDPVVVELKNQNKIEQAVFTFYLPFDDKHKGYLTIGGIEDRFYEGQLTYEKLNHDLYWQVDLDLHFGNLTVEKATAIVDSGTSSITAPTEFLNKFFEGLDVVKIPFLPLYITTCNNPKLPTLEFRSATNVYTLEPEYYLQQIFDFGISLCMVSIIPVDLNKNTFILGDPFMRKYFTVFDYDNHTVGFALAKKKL

- Ki (Plasmepsin I): 0.0039 µM
- Ki (Plasmepsin II): 0.041 µM
- Ki (Cathepsin D): 0.586 µM
SMILES: CC(C)[C@H](NC(=O)c1ccccn1)C(=O)N[C@@H](COCc1ccc(Br)cc1)[C@@H](O)CC(=O)NCC1CCCCC1 [(3S,4S)-5-[(4-bromophenyl)methoxy]-N-(cyclohexylmethyl)-3-hydroxy-4-[(2S)-3-methyl-2-(pyridin-2-ylformamido)butanamido]pentanamide]
